Test results: patent US5179090A, “Condensed diazepinones and medicaments containing these compounds” (priority 1989, dated 1993)

Key:
[1] = target: T1, M receptors of the bronchial tubes (Cavia porcellus, UniProt H0W1Z3); assay: Acetylcholine antagonism in anaesthetised guinea pigs: inhibition of bronchoconstriction; assay type: in vivo, guinea pig; conditions: iv, 5 min; guinea pig, i.v., acetylcholine antagonism, n=4-6; read-out: -log ED50 bronchial tubes (converted)
T1 construct: Guinea pigs of both sexes (550-600 g body weight) were anaesthetised using urethane; from tissue; host or cells: bronchi of anaesthetised guinea pigs (in vivo)
Description: (§1) The methods used had the aim of confirming the selectivity of the anti-muscarine effect. Any substances which had been selected on the basis of "in vitro" investigations were investigated for
(§2) 1. selectivity of the bronchospasmolytic activity in the guinea pig,
(§3) 1. Effect on M receptors of the bronchial tubes, the heart and the bladder of anaesthetised guinea pigs
(§4) Guinea pigs of both sexes (550-600 g body weight) were anaesthetised using urethane (1.4 g/kg intraperitoneally). A cannula was introduced into the augular vein to inject the active agents. 220 I.U./kg of heparin were injected intravenously. A cannula was introduced into the trachea; the animals were artificially respirated by means of a positive pressure pump (Braun-Melsungen) using oxygen-enriched air at a rate of 80 beats per minute. A branch of the tracheal cannula was connected to a water manometer 10 cm high. The respiration volume was set such that the maximum intratracheal pressure just reached the pressure of a 10 cm water column during respiration.
(§5) The values were recorded using an IFD recording apparatus. The trachea was clamped for a short time before the test to produce the maximum possible degree of bronchoconstriction for calibration. […] The heart rate was measured using a rate detector which is triggered by arterial pulse waves.
(§6) The active substances to be tested were injected via the jugular vein, 5 minutes later the increase in tone of the bladder (in grams) the bronchial resistance (in %) and the decrease in heart rate (beats per minute) were measured after administration of acetylcholine (50 μg/kg intravenously and intraarterially). Dosage-dependency graphs were drawn by plotting the percentage inhibition of bronchoconstriction, bradycardia and the increase in tone of the bladder against the logarithm of the dosage (mole/kg) of the active agents to be investigated. The results are given as average values (n=4-6).

[2] = system: M receptors of the bronchial tubes; assay: as above; assay type: in vivo, guinea pig; conditions: for Ratio influence of bradycardia to bronchoconstriction: guinea pig, i.v., ratio heart (bradycardia) to bronchial tubes; for selectivity for smooth muscle: smooth muscle vs heart rate or saliva secretion
Description: as §1, §2, §3, §4, §5, §6

[3] = target: T2, M receptors of the bladder (Cavia porcellus, UniProt H0W1Z3); assay: Acetylcholine antagonism in anaesthetised guinea pigs: inhibition of increase in tone of the bladder; assay type: in vivo; conditions: iv, 5 min, guinea pig, i.v., n=4-6, read-out: -log ED50 bladder (converted)
T2 construct: the bladder was connected to a power transducer under a resting tension of 1 gram; from tissue; host or cells: urinary bladder of anaesthetised guinea pigs (in vivo)
Description: as §1, §3, §4
A small median abdominal incision was made and the bladder was connected to a power transducer under a resting tension of 1 gram.
as §6

[4] = target: T3, M receptors of the heart (Cavia porcellus, UniProt H0VRN8); assay: Acetylcholine antagonism in anaesthetised guinea pigs: inhibition of bradycardia; assay type: in vivo, guinea pig; conditions: iv, 5 min; guinea pig, i.v., acetylcholine antagonism (bradycardia), n=4-6; read-out: -log ED50 heart (converted)
T3 construct: from tissue; host or cells: heart of anaesthetised guinea pigs (in vivo)
T3 sequence (H0VRN8 1-466): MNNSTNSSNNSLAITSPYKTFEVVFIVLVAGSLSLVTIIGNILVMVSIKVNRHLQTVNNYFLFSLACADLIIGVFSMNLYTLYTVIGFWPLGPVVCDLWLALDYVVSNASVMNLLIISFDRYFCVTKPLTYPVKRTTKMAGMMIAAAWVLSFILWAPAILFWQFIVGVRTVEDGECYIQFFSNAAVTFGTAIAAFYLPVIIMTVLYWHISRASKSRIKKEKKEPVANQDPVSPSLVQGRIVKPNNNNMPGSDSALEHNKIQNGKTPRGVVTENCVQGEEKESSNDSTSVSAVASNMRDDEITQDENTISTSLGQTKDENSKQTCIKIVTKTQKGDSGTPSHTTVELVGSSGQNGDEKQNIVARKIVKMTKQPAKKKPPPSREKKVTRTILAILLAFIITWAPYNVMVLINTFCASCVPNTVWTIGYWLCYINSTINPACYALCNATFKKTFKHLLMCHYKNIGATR
Description: as §1, §3, §4, §5, §6

[5] = system: guinea pig ileum; assay: In situ spasmolytic effect in guinea pigs (methacholine-induced ileum contractions); assay type: in vivo; conditions: i.v.; for ED50: Cavia porcellus, iv, 5 min, guinea pig, methacholine 20 μg/kg intraarterially, n=4 to 8, read-out: -log ED50 in situ spasmolysis guinea pig ileum (converted); for Ratio saliva secretion inhibition to spasmolytic activity: rat saliva secretion vs guinea pig ileum in situ
Description: as §1
3. in situ spasmolytic activity in the guinea pig.
3 In situ spasmolytic effect in guinea pigs
Male guinea pigs (500 to 600 g body weight) were anaesthetised using urethane (1.2 g/kg intraperitoneally);cannulae Were introduced into the trachea, jugular vein and the left carotid artery. The animals were artificially respirated by means of a positive pressure pump using oxygen-enriched air at a beat frequency of 80 per minute. A 3 to 4 cm abdominal incision was made and about 15 cm of a movable loop of the ileum was removed distally while maintaining the blood circulation. The proximal part was filled with a Krebs-Ringer solution and a pressure meter was introduced into the intestine using a Millar micro-tip catheter (PC-450, 5F). A glass tube was placed vertically in the abdomen and attached to the surrounding abdominal wall such that the animal served as its own organ bath when the glass tube was filled with Krebs-Ringer solution.
The glass tube was filled with Krebs-Ringer solution until the whole of the hypogastrium was immersed. The active agents to be tested were injected via the jugular vein; 5 minutes later contractions were produced by means of methacholine (20 μg/kg intraarterially). Dosage-activity graphs were obtained by plotting the percentage suppression of contractions produced by methacholine against the logarithm of dosage amount (mole/kg) of the active substance to be tested.
The results were given as average values (n=4 to 8) (see Table II).

[6] = system: saliva secretion; assay: Saliva secretion-inhibiting effect in the rat (pilocarpine-triggered); assay type: in vivo; conditions: iv, pilocarpine 2 mg/kg subcutaneous, 50% reduction of saliva volume, read-out: -log ED50 saliva secretion inhibition rat (converted)
Method: as §1
2. saliva secretion-inhibiting effect in the rat, and
2. Saliva secretion-inhibitino effect in the rat
The secretion of saliva was triggered by subcutaneous administration of 2 mg/kg of pilocarpine. The saliva was absorbed using blotting paper, the surface taken up by it was determined planimetrically every 5 minutes. The dosage of the substance which reduced the volume of saliva by 50% was determined graphically.

[7] = system: M receptors of the heart; assay: Acetylcholine antagonism in anaesthetised guinea pigs: inhibition of bradycardia; assay type: in vivo, guinea pig; conditions: comparison, Tables I and III
Description: as §1, §3, §4, §5, §6

[8] = target: T4, muscarine receptors of the vestibule (Cavia porcellus, UniProt H0VRN8); assay: In vitro dissociation constant on spontaneously beating vestibule (heart), methacholine antagonism; assay type: cell-based; conditions: guinea pig spontaneously beating vestibule
T4 construct: in the removed, spontaneously beating right vestibule; from tissue; host or cells: isolated spontaneously beating right atrium ('vestibule') of guinea pig
T4 sequence (H0VRN8 1-466): T3 sequence (H0VRN8 1-466)
Method: (§7) Substances having anti-muscarine properties inhibit the effects of exogenically introduced agonists or of acetylcholine which is released from cholinergic nerve endings. A description of methods which are suitable for determining spasmolytically active anti-muscarine agents is given below.
(§8) Dissociation constants ([…]) were determined "in vitro" on the ileum and spontaneously beating vestibule of a guinea pig. The ileum was removed and incubated in an organ bath in Krebs- Henseleit solution. Contractions were induced by increasing concentrations of methacholine (M) such that complete concentration-activity graphs could be plotted. M was then washed out, the substance to be investigated was added and incubated for 30 minutes, and once again a concentration-activity graph was plotted using M.
The dissociation constant according to Arunlakshana and Schild (Brit. J. Pharmacol. 14; 48 (1959)) Was calculated from the dosage ratio (DR) which is the measure of the displacement of the concentration-activity graph.
M reduced the heart rate as a function of concentration in the removed, spontaneously beating right vestibule. This effect was cancelled again by adding an anti-muscarine agent. Dissociation constants for the muscarine receptors of the vestibule were obtained in the same manner as described above. The comparison of the dissociation constants determined in both tissues permitted the identification of selectively spasmolytically active substances.

[9] = target: T5, muscarine receptors in the ileum (Cavia porcellus, UniProt H0W1Z3); assay: In vitro dissociation constant on ileum, methacholine antagonism; assay type: cell-based, guinea pig; conditions: guinea pig ileum
T5 construct: The ileum was removed and incubated in an organ bath; from tissue; host or cells: isolated ileum of guinea pig
Method: as §7, §8
(§9) Dissociation constants for the muscarine receptors of the vestibule were obtained in the same manner as described above.

[10] = system: muscarine receptors in the ileum; assay: as above; assay type: cell-based, guinea pig; conditions: guinea pig
Method: as §7, §8, §9

T2 sequence (H0W1Z3 1-590): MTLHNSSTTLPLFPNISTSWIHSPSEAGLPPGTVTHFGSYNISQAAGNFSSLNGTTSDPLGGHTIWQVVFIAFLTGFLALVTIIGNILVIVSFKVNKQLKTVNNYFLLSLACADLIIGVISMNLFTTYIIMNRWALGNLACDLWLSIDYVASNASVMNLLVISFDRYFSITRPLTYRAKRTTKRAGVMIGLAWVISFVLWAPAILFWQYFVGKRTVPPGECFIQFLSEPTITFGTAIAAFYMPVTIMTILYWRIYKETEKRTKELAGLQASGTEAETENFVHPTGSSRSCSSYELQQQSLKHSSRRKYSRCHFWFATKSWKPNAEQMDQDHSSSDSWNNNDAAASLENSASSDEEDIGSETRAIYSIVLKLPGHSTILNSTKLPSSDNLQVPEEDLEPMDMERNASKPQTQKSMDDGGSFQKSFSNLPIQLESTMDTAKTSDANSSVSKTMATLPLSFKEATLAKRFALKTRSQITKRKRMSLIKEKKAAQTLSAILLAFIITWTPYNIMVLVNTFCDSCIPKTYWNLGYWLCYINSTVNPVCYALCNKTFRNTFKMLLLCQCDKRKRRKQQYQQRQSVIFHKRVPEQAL
T5 sequence (H0W1Z3 1-590): as above
T1 sequence (H0W1Z3 1-590): as above

Compound	ED50 [1] [µmol/kg]	Ratio influence of bradycardia to bronchoconstriction [2]	ED50 [3] [µmol/kg]	ED50 [4] [µmol/kg]	ED50 [5] [µmol/kg]	Ratio saliva secretion inhibition to spasmolytic activity [5]	ED50 [6] [µmol/kg]	effectiveness on cardiac muscarine receptors [7]	Kb [8] [µM]	Kb [9] [µM]	Selectivity KB heart to KB ileum [10]	selectivity for smooth muscle [2]
CN1CC2CN(C(=O)N3c4ccccc4C(=O)Nc4cccnc43)CC2C1 (centres unmarked) [C]	0.631	8	3.02	4.79	0.708	4	2.95	–	–	–	–	–
Cc1scc2c1N(C(=O)N1CC3CN(C)CC3C1)c1ccccc1NC2=O (centres unmarked) [D]	0.0891	8	1.58	0.741	–	–	–	–	–	–	–	–
CN(C)CC1CCCCN1CC(=O)N1c2ccccc2C(=O)Nc2cccnc21 (centres unmarked) [X]	2.63	0.5	11.7	1.45	–	–	–	higher effectiveness on cardiac muscarine receptors	0.105	0.617	0.17	–
CN1CCN(CC(=O)N2c3ccccc3C(=O)Nc3cccnc32)CC1 [Y]	0.269	5	1.45	1.26	0.832	0.5	0.38	–	0.123	0.194	0.63	no selectivity
CN1CCC2C1CCN2C(=O)N1c2ccccc2NC(=O)c2cccnc21 (centres unmarked) [B]	0.0447	44	0.813	1.95	–	–	–	–	0.145	0.0603	2.4	very marked smooth muscle selectivity
CN1CCC2C1CCN2C(=O)N1c2ccccc2C(=O)Nc2cccnc21 (centres unmarked) [A]	0.049	21	0.49	1.05	0.117	2	0.2	–	0.209	0.0302	6.9	very marked smooth muscle selectivity
CN1[C@@H]2CC[C@H]1CC(OC(=O)C(CO)c1ccccc1)C2 (some centres unmarked) [Z]	0.00813	–	0.0525	0.0269	0.0525	–	–	–	–	–	–	–
